The values below come from patent publication US9290453B2 (Merck Sharp & Dohme Corp., priority 2010, dated 2016).

Molecules are shown by their SMILES.

In one assay the target is T1, hCRTH2 (Homo sapiens, UniProt Q9Y5Y4).
T1 construct: expressed in transfected cells; host or cells: HEK (human embryonic kidney) cells expressing hCRTH2
T1 sequence (Q9Y5Y4 1-395): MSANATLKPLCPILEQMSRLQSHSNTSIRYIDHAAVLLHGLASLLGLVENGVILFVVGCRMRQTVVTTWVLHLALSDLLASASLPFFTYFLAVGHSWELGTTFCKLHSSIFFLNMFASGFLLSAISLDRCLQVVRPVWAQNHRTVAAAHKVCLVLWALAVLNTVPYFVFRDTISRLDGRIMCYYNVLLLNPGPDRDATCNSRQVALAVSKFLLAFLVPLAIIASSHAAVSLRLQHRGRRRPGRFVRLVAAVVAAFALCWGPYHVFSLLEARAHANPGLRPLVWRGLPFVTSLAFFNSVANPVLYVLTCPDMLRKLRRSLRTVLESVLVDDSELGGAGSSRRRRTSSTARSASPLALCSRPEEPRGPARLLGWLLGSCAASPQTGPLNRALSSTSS
The assay is described as follows: Radioligand Binding Assay B (scintillation proximity assay, [3H]-PGD2, HEK-hCRTH2 membranes). Particulars: Radioligand Binding Assay B (SPA), values in text. Here is the method: Radioligand binding also was performed using scintillation proximity assay (SPA) technology in a similar way as described above in Radioligand Binding Assay A with minor modification. Assays were done at room temperature in 10 mM HEPES pH 7.4, 1 mM EDTA containing 2 mM MnCl2 and 16 nM [^3H]-PGD2 (PerkinElmer, Waltham, Mass.) (164 Ci mmol^−1), in a final volume of 0.05 mL. Competing ligands were diluted in dimethylsulfoxide (Me2SO) and added using very low volumes (50 nL). The reaction was initiated by the addition of a mixture of 3.52 μg of membrane protein prepared from a human embryonic kidney (HEK)-hCRTH2 cell line adhered to 140 ug of wheatgerm agglutinin SPA beads (PerkinElmer). Total and non-specific binding were determined in the absence and the presence of 10 μM of a CRTH2 antagonist, respectively. The reaction was routinely conducted for 60 min at room temperature followed by centrifugation for 5 minutes at 1000 RPM. The radioactivity was measured with a TopCountNXT (PerkinElmer). Results determined using the SPA-based assay were similar to those from the filtration binding assay.
In general terms: Scintillation proximity formats need no separation of bound from free tracer.
One may read the Ki as a measure of affinity in units of concentration, obtained from inhibition or displacement. In turn, `O=C(O)CCCCc1cc2cc(C(=O)N[C@H]3CCOc4ccccc43)ccc2nc1-c1ccccc1` [Compound 1AL, (S)-5-(6-(chroman-4-ylcarbamoyl)-2-phenylquinolin-3-yl)pentanoic acid] yielded a Ki of 22.3 nM.

For `O=C(O)CCCCc1cc2cc(C(=O)N3CCN(c4c(Cl)cncc4Cl)CC3)ccc2nc1-c1ccccc1` [Compound 1AY, 5-(6-(4-(3,5-dichloropyridin-4-yl)piperazine-1-carbonyl)-2-phenylquinolin-3-yl)pentanoic acid], the Ki is 14 nM.

Regarding `O=C(O)CCCCc1cc2cc(C(=O)N3CCN(c4ccccc4)CC3)ccc2nc1-c1ccc(F)cc1` [Compound 5AF, 5-(2-(4-fluorophenyl)-6-(4-phenylpiperazine-1-carbonyl)quinolin-3-yl)pentanoic acid], the affinity, expressed as Ki, was 11.6 nM.

The same assay, now with this note: Table B, Radioligand Binding Assay B (SPA), rated A-D.
Compound `C[C@@H](NC(=O)c1ccc2nc(-c3ccccc3)c(CCCCC(=O)O)cc2c1)c1ccc(F)cc1` [Compound 1AH, (R)-5-(6-((1-(4-fluorophenyl)ethyl)carbamoyl)-2-phenylquinolin-3-yl)pentanoic acid] had a Ki of 20.1 to 200 nM.

As to `O=C(O)CCCCc1cc2cc(C(=O)N3CC(c4cccc(F)c4)C3)ccc2nc1-c1ccccc1` [Compound 1AJ, 5-(6-(3-(3-fluorophenyl)azetidine-1-carbonyl)-2-phenylquinolin-3-yl)pentanoic acid], the Ki is 2.1 to 20 nM.

For the compound `CN(Cc1ccc(F)cc1)C(=O)c1ccc2nc(-c3ccccc3)c(CCCCC(=O)O)cc2c1` [Compound 1AK, 5-(6-((4-fluorobenzyl)(methyl)carbamoyl)-2-phenylquinolin-3-yl)pentanoic acid], the Ki lay in the range of 20.1 to 200 nM.

`O=C(O)CCCCc1cc2cc(C(=O)N[C@H]3CCOc4ccccc43)ccc2nc1-c1ccccc1` [Compound 1AL, (S)-5-(6-(chroman-4-ylcarbamoyl)-2-phenylquinolin-3-yl)pentanoic acid] gave a Ki of 20.1 to 200 nM.

As for `O=C(O)CCCCc1cc2cc(C(=O)N3CC[C@H](c4ccc(F)cc4)C3)ccc2nc1-c1ccccc1` [Compound 1AM, (R)-5-(6-(3-(4-fluorophenyl)pyrrolidine-1-carbonyl)-2-phenylquinolin-3-yl)pentanoic acid], the Ki lay within 20.1 to 200 nM.

`O=C(O)CCCCc1cc2cc(C(=O)N3CC[C@@H](c4ccc(F)cc4)C3)ccc2nc1-c1ccccc1` [Compound 1AN, (S)-5-(6-(3-(4-fluorophenyl)pyrrolidine-1-carbonyl)-2-phenylquinolin-3-yl)pentanoic acid] registered a Ki of 2.1 to 20 nM.

`CC1(C)CC(NC(=O)c2ccc3nc(-c4ccccc4)c(CCCCC(=O)O)cc3c2)c2ccccc2O1` (stereo not drawn) [Compound 1AP, 5-(6-((2,2-dimethylchroman-4-yl)carbamoyl)-2-phenylquinolin-3-yl)pentanoic acid] yielded a Ki of 20.1 to 200 nM.

`CC1(C)CCC(NC(=O)c2ccc3nc(-c4ccccc4)c(CCCCC(=O)O)cc3c2)c2ccccc21` (stereo not drawn) [Compound 1AQ, 5-(6-((4,4-dimethyl-1,2,3,4-tetrahydronaphthalen-1-yl)carbamoyl)-2-phenylquinolin-3-yl)pentanoic acid]: the Ki was 2.1 to 20 nM.

Consider `N#CC1(c2ccccc2)CCN(C(=O)c2ccc3nc(-c4ccccc4)c(CCCCC(=O)O)cc3c2)C1` (stereo not drawn) [Compound 1AR, 5-(6-(3-cyano-3-phenylpyrrolidine-1-carbonyl)-2-phenylquinolin-3-yl)pentanoic acid], for which the Ki fell in the range of 2.1 to 20 nM.

For `O=C(O)CCCCc1cc2cc(C(=O)NC3CC(=O)Nc4ccccc43)ccc2nc1-c1ccccc1` (stereo not drawn) [Compound 1AS, 5-(6-((2-oxo-1,2,3,4-tetrahydroquinolin-4-yl)carbamoyl)-2-phenylquinolin-3-yl)pentanoic acid], the Ki lay in the range of 2.1 to 20 nM.

Turning to `CC(C)(NC(=O)c1ccc2nc(-c3ccccc3)c(CCCCC(=O)O)cc2c1)c1ccc(F)cc1` [Compound 1AT, 5-(6-((2-(4-fluorophenyl)propan-2-yl)carbamoyl)-2-phenylquinolin-3-yl)pentanoic acid], the Ki fell in the range of 20.1 to 200 nM.

`O=C(O)CCCCc1cc2cc(C(=O)N3CCC(n4c(=O)[nH]c5ccccc54)CC3)ccc2nc1-c1ccccc1` [Compound 1AU, 5-(6-(4-(2-oxo-2,3-dihydro-1H-benzo[d]imidazol-1-yl)piperidine-1-carbonyl)-2-phenylquinolin-3-yl)pentanoic acid] came in with a Ki of 20.1 to 200 nM.

As for `O=C(O)CCCCc1cc2cc(C(=O)N3CCC4(CC3)OCc3ccccc34)ccc2nc1-c1ccccc1` [Compound 1AV, 5-(2-phenyl-6-(3H-spiro[isobenzofuran-1,4′-piperidin]-1′-ylcarbonyl)quinolin-3-yl)pentanoic acid], the Ki is 2.1 to 20 nM.

Take `O=C(O)CCCCc1cc2cc(C(=O)N3CCN(c4ccccn4)CC3)ccc2nc1-c1ccccc1` [Compound 1AW, 5-(2-phenyl-6-(4-(pyridin-2-yl)piperazine-1-carbonyl)quinolin-3-yl)pentanoic acid]: the Ki was 20.1 to 200 nM.

With `N#Cc1cccnc1N1CCN(C(=O)c2ccc3nc(-c4ccccc4)c(CCCCC(=O)O)cc3c2)CC1` [Compound 1AX, 5-(6-(4-(3-cyanopyridin-2-yl)piperazine-1-carbonyl)-2-phenylquinolin-3-yl)pentanoic acid], the Ki lay in the range of 20.1 to 200 nM.

The compound `O=C(O)CCCCc1cc2cc(C(=O)N3CCN(c4c(Cl)cncc4Cl)CC3)ccc2nc1-c1ccccc1` [Compound 1AY, 5-(6-(4-(3,5-dichloropyridin-4-yl)piperazine-1-carbonyl)-2-phenylquinolin-3-yl)pentanoic acid] returned a Ki of 2.1 to 20 nM.

Compound `N#Cc1ccccc1N1CCN(C(=O)c2ccc3nc(-c4ccccc4)c(CCCCC(=O)O)cc3c2)CC1` [Compound 1AZ, 5-(6-(4-(2-cyanophenyl)piperazine-1-carbonyl)-2-phenylquinolin-3-yl)pentanoic acid] registered a Ki of 2.1 to 20 nM.

`O=C(O)CCCCc1cc2cc(C(=O)N3CCN(c4ccccc4)CC3)ccc2nc1-c1ccccc1` [Compound 1Ai, 5-(2-phenyl-6-(4-phenylpiperazine-1-carbonyl)quinolin-3-yl)pentanoic acid] showed a Ki of 2.1 to 20 nM.

On to `O=C(O)CCCCc1cc2cc(C(=O)N[C@H]3COc4ccccc43)ccc2nc1-c1ccccc1` [Compound 1Ao, (R)-5-(6-((2,3-dihydrobenzofuran-3-yl)carbamoyl)-2-phenylquinolin-3-yl)pentanoic acid], for which the Ki lay within 20.1 to 200 nM.

Turning to `O=C(O)CCCCc1cc2cc(C(=O)N3CCN(c4ccccc4Cl)CC3)ccc2nc1-c1ccccc1` [Compound 1BA, 5-(6-(4-(2-chlorophenyl)piperazine-1-carbonyl)-2-phenylquinolin-3-yl)pentanoic acid], the Ki is 2.1 to 20 nM.

In the case of `Cc1ccccc1N1CCN(C(=O)c2ccc3nc(-c4ccccc4)c(CCCCC(=O)O)cc3c2)CC1` [Compound 1BB, 5-(2-phenyl-6-(4-(o-tolyl)piperazine-1-carbonyl)quinolin-3-yl)pentanoic acid], the Ki is 2.1 to 20 nM.

`Cc1cccc(N2CCN(C(=O)c3ccc4nc(-c5ccccc5)c(CCCCC(=O)O)cc4c3)CC2)c1` [Compound 1BC, 5-(2-phenyl-6-(4-(m-tolyl)piperazine-1-carbonyl)quinolin-3-yl)pentanoic acid] yielded a Ki of 2.1 to 20 nM.

The compound `COc1ccc(N2CCN(C(=O)c3ccc4nc(-c5ccccc5)c(CCCCC(=O)O)cc4c3)CC2)cc1` [Compound 1BD, 5-(6-(4-(4-methoxyphenyl)piperazine-1-carbonyl)-2-phenylquinolin-3-yl)pentanoic acid] gave a Ki of 2.1 to 20 nM.

As for `O=C(O)CCCCc1cc2cc(C(=O)N[C@@H]3CCOc4ccccc43)ccc2nc1-c1ccc(F)cc1` [Compound 5AD, (R)-5-(6-(chroman-4-ylcarbamoyl)-2-(4-fluorophenyl)quinolin-3-yl)pentanoic acid], the Ki was 2.1 to 20 nM.

Compound `O=C(O)CCCCc1cc2cc(C(=O)N[C@@H]3CCCc4cc(F)ccc43)ccc2nc1-c1ccc(F)cc1` [Compound 5AE, (R)-5-(6-((6-fluoro-1,2,3,4-tetrahydronaphthalen-1-yl)carbamoyl)-2-(4-fluorophenyl)quinolin-3-yl)pentanoic acid] returned a Ki of 2.1 to 20 nM.

Consider `O=C(O)CCCCc1cc2cc(C(=O)N3CCN(c4ccccc4)CC3)ccc2nc1-c1ccc(F)cc1` [Compound 5AF, 5-(2-(4-fluorophenyl)-6-(4-phenylpiperazine-1-carbonyl)quinolin-3-yl)pentanoic acid], for which the Ki was 2.1 to 20 nM.

For `O=C(O)CCCCc1cc2cc(C(=O)N3CC(c4cccc(F)c4)C3)ccc2nc1-c1ccc(F)cc1` [Compound 5AG, 5-(2-(4-fluorophenyl)-6-(3-(3-fluorophenyl)azetidine-1-carbonyl)quinolin-3-yl)pentanoic acid], the Ki lay within 20.1 to 200 nM.

Turning to `O=C(O)CCCCc1cc2cc(C(=O)N3CC[C@@H](c4ccccc4)C3)ccc2nc1-c1ccc(F)cc1` [Compound 5AH, (S)-5-(2-(4-fluorophenyl)-6-(3-phenylpyrrolidine-1-carbonyl)quinolin-3-yl)pentanoic acid], the Ki fell in the range of 2.1 to 20 nM.

As to `CC1(C)CC(NC(=O)c2ccc3nc(-c4ccc(F)cc4)c(CCCCC(=O)O)cc3c2)c2ccccc2O1` (stereo not drawn) [Compound 5AJ, 5-(6-((2,2-dimethylchroman-4-yl)carbamoyl)-2-(4-fluorophenyl)quinolin-3-yl)pentanoic acid], the Ki fell in the range of 2.1 to 20 nM.

As for `CC1(C)CCC(NC(=O)c2ccc3nc(-c4ccc(F)cc4)c(CCCCC(=O)O)cc3c2)c2ccccc21` (stereo not drawn) [Compound 5AK, 5-(6-((4,4-dimethyl-1,2,3,4-tetrahydronaphthalen-1-yl)carbamoyl)-2-(4-fluorophenyl)quinolin-3-yl)pentanoic acid], the Ki was in the range of 2.1 to 20 nM.
